How the values were obtained:
[1] = target: dopamine D2 receptor (D2R) (Rattus norvegicus, UniProt P61169); assay: in vivo; conditions: rat, baseline, mean ± S.D.
Description: Because of limited availability of the test drug, the 60 mg/kg dose group was scanned only with ^11C-raclopride.
After drug administration and about 20 min before each microPET scan, animals were anesthetized with isoflurane (Pharmachemie BV, Haarlem, Netherlands). […] Both tracers were injected as a slow bolus (1 ml of saline-diluted tracer solution infused during a period of 1 min), using a Harvard-style injection pump.
Two rats were scanned in each scan session. They were positioned on heating mats in a microPET Focus 220 system, in transaxial position above each other with their brains in the field of view. Body temperature of the animals was kept close to normal with electronic temperature controllers. Heart rate and oxygen level of the blood during the scan were monitored using pulse oximeters (PulseSense, Nonin). […] A list mode protocol was used with a 76-min acquisition time.
Image reconstruction was performed using microPET Manager 2.3.3.6 (Siemens). The PET data were split according to position along the y-axis, so that a separate data set was acquired for each animal. The list mode data of the emission scans were reframed in a dynamic sequence of 6 × 10, 4 × 30, 2 × 60, 1 × 120, 1 × 180, 4 × 300, and 3 × 600 s (with an additional 960-s frame for the rat that was injected first). The data were reconstructed per time frame employing an iterative reconstruction algorithm (OSEM2D with Fourier rebinning, 4 iterations, and 16 subsets). […] Data sets were corrected for decay, random coincidences, scatter, and attenuation.
In ^11C-raclopride scans of the brain, three-dimensional regions of interest (ROIs) were manually drawn over the left and right striatum and cerebellum, using the program ASIPro 6.3.3.0 (Siemens). […] Time-activity curves (TACs) were generated for these regions (Fig. 1). The results are expressed as dimensionless standardized uptake values (PET-SUV), defined as [(tissue activity concentration (MBq/g) × body weight (g) / injected dose (MBq)]. Brain tissue was assumed to have a specific gravity of 1 g/ml.
Plateau values for the striatum-to-cerebellum ratio were derived from this curve fit.

[2] = plasma radioactivity and metabolite analysis after ^11C-SA4503 injection; type: in vivo; conditions: rat, 60 min, saline-treated
Description: From these samples, 25 μl of whole blood was collected and plasma (25 μl) was then obtained by centrifugation of the remaining sample (5 min at 13,000×g). Radioactivity in plasma and whole blood was determined using a calibrated gamma counter (CompuGamma CS1282, LKB-Wallac, Turku, Finland).

[3] = Biodistribution of ^11C-SA4503-derived radioactivity; type: in vivo; conditions: rat, 80 min after injection, mean ± SEM

Chain of dopamine D2 receptor (D2R) (P61169 whole entry): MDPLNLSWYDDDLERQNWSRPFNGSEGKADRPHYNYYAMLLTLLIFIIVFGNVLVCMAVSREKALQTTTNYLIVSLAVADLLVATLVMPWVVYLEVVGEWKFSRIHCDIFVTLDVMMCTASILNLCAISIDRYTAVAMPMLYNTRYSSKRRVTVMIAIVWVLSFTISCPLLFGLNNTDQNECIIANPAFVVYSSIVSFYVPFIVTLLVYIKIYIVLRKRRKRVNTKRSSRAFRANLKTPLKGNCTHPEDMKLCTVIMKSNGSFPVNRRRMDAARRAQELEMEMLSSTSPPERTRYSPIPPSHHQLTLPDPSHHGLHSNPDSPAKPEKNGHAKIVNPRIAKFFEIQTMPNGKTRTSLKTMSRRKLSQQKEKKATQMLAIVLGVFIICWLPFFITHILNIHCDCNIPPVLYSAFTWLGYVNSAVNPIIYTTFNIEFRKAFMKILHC

CCN1CCC[C@H]1CNC(=O)c1c(O)c(Cl)cc(Cl)c1O[11CH3] (racemic) [^11C-raclopride]
Target binding of the radioligand (striatum-to-cerebellum ratio at plateau minus one) [1]: 2.85 ± 0.48

COc1ccc(CCN2CCN(CCCc3ccccc3)CC2)cc1OC [^11C-SA4503, 1-[2-(3,4-dimethoxyphenethyl)]-4-(3-phenylpropyl)piperazine]
parent tracer (^11C-SA4503) remaining unchanged in plasma [2]: 55%
Uptake of radioactivity (SUV values), Adipose tissue ([3]; 3 mg/kg pridopidine): 0.27 ± 0.06 SUV
Uptake of radioactivity (SUV values), Adrenal gland ([3]; 3 mg/kg pridopidine): 23.0 ± 4.1 SUV
Uptake of radioactivity (SUV values), Bladder ([3]; 3 mg/kg pridopidine): 0.88 ± 0.38 SUV
Uptake of radioactivity (SUV values), Bone ([3]; 3 mg/kg pridopidine): 0.26 ± 0.03 SUV
Uptake of radioactivity (SUV values), Bone marrow ([3]; 3 mg/kg pridopidine): 2.62 ± 0.67 SUV
Uptake of radioactivity (SUV values), Cerebellum ([3]; 3 mg/kg pridopidine): 0.76 ± 0.17 SUV
Uptake of radioactivity (SUV values), Cerebral cortex ([3]; 3 mg/kg pridopidine): 1.17 ± 0.17 SUV
Uptake of radioactivity (SUV values), Heart ([3]; 3 mg/kg pridopidine): 0.23 ± 0.01 SUV
Uptake of radioactivity (SUV values), Intestine (large) ([3]; 3 mg/kg pridopidine): 1.21 ± 0.12 SUV
Uptake of radioactivity (SUV values), Intestine (small) ([3]; 3 mg/kg pridopidine): 1.93 ± 0.40 SUV
Uptake of radioactivity (SUV values), Kidney ([3]; 3 mg/kg pridopidine): 2.10 ± 0.09 SUV
Uptake of radioactivity (SUV values), Liver ([3]; 3 mg/kg pridopidine): 7.71 ± 0.89 SUV
Uptake of radioactivity (SUV values), Lung ([3]; 3 mg/kg pridopidine): 1.05 ± 0.06 SUV
Uptake of radioactivity (SUV values), Muscle ([3]; 3 mg/kg pridopidine): 0.13 ± 0.01 SUV
Uptake of radioactivity (SUV values), Pancreas ([3]; 3 mg/kg pridopidine): 5.02 ± 0.64 SUV
Uptake of radioactivity (SUV values), Pituitary ([3]; 3 mg/kg pridopidine): 2.13 ± 0.44 SUV
Uptake of radioactivity (SUV values), Plasma ([3]; 3 mg/kg pridopidine): 0.14 ± 0.02 SUV
Uptake of radioactivity (SUV values), Red blood cells ([3]; 3 mg/kg pridopidine): 0.07 ± 0.01 SUV
Uptake of radioactivity (SUV values), Rest brain ([3]; 3 mg/kg pridopidine): 1.10 ± 0.05 SUV
Uptake of radioactivity (SUV values), Spleen ([3]; 3 mg/kg pridopidine): 2.03 ± 0.12 SUV
Uptake of radioactivity (SUV values), Submandibular gland ([3]; 3 mg/kg pridopidine): 4.48 ± 0.64 SUV
Uptake of radioactivity (SUV values), Urine ([3]; 3 mg/kg pridopidine): 1.60 ± 0.87 SUV
Uptake of radioactivity (SUV values), Adipose tissue ([3]; 15 mg/kg pridopidine): 0.36 ± 0.04 SUV
Uptake of radioactivity (SUV values), Adrenal gland ([3]; 15 mg/kg pridopidine): 10.7 ± 4.1 SUV
Uptake of radioactivity (SUV values), Bladder ([3]; 15 mg/kg pridopidine): 0.83 ± 0.22 SUV
Uptake of radioactivity (SUV values), Bone ([3]; 15 mg/kg pridopidine): 0.44 ± 0.05 SUV
Uptake of radioactivity (SUV values), Bone marrow ([3]; 15 mg/kg pridopidine): 2.20 ± 0.77 SUV
Uptake of radioactivity (SUV values), Cerebellum ([3]; 15 mg/kg pridopidine): 0.73 ± 0.03 SUV
Uptake of radioactivity (SUV values), Cerebral cortex ([3]; 15 mg/kg pridopidine): 0.87 ± 0.05 SUV
Uptake of radioactivity (SUV values), Heart ([3]; 15 mg/kg pridopidine): 0.38 ± 0.02 SUV
Uptake of radioactivity (SUV values), Intestine (large) ([3]; 15 mg/kg pridopidine): 0.74 ± 0.08 SUV
Uptake of radioactivity (SUV values), Intestine (small) ([3]; 15 mg/kg pridopidine): 1.70 ± 0.15 SUV
Uptake of radioactivity (SUV values), Kidney ([3]; 15 mg/kg pridopidine): 2.07 ± 0.15 SUV
Uptake of radioactivity (SUV values), Liver ([3]; 15 mg/kg pridopidine): 7.21 ± 0.83 SUV
Uptake of radioactivity (SUV values), Lung ([3]; 15 mg/kg pridopidine): 1.47 ± 0.04 SUV
Uptake of radioactivity (SUV values), Muscle ([3]; 15 mg/kg pridopidine): 0.22 ± 0.02 SUV
Uptake of radioactivity (SUV values), Pancreas ([3]; 15 mg/kg pridopidine): 6.23 ± 0.53 SUV
Uptake of radioactivity (SUV values), Pituitary ([3]; 15 mg/kg pridopidine): 2.75 ± 0.72 SUV
Uptake of radioactivity (SUV values), Plasma ([3]; 15 mg/kg pridopidine): 0.28 ± 0.02 SUV
Uptake of radioactivity (SUV values), Red blood cells ([3]; 15 mg/kg pridopidine): 0.16 ± 0.01 SUV
Uptake of radioactivity (SUV values), Rest brain ([3]; 15 mg/kg pridopidine): 0.65 ± 0.03 SUV
Uptake of radioactivity (SUV values), Spleen ([3]; 15 mg/kg pridopidine): 1.99 ± 0.07 SUV
Uptake of radioactivity (SUV values), Submandibular gland ([3]; 15 mg/kg pridopidine): 5.77 ± 0.39 SUV
Uptake of radioactivity (SUV values), Urine ([3]; 15 mg/kg pridopidine): 0.50 ± 0.09 SUV
Uptake of radioactivity (SUV values), Adipose tissue ([3]; Baseline): 0.26 ± 0.05 SUV
Uptake of radioactivity (SUV values), Adrenal gland ([3]; Baseline): 25.7 ± 3.6 SUV
Uptake of radioactivity (SUV values), Bladder ([3]; Baseline): 0.70 ± 0.10 SUV
Uptake of radioactivity (SUV values), Bone ([3]; Baseline): 0.44 ± 0.14 SUV
Uptake of radioactivity (SUV values), Bone marrow ([3]; Baseline): 2.57 ± 0.47 SUV
Uptake of radioactivity (SUV values), Cerebellum ([3]; Baseline): 1.95 ± 0.12 SUV
Uptake of radioactivity (SUV values), Cerebral cortex ([3]; Baseline): 1.97 ± 0.15 SUV
Uptake of radioactivity (SUV values), Heart ([3]; Baseline): 0.33 ± 0.04 SUV
Uptake of radioactivity (SUV values), Intestine (large) ([3]; Baseline): 1.72 ± 0.13 SUV
Uptake of radioactivity (SUV values), Intestine (small) ([3]; Baseline): 2.33 ± 0.28 SUV
Uptake of radioactivity (SUV values), Kidney ([3]; Baseline): 4.19 ± 0.20 SUV
Uptake of radioactivity (SUV values), Liver ([3]; Baseline): 6.47 ± 0.63 SUV
Uptake of radioactivity (SUV values), Lung ([3]; Baseline): 1.98 ± 0.18 SUV
Uptake of radioactivity (SUV values), Muscle ([3]; Baseline): 0.15 ± 0.02 SUV
Uptake of radioactivity (SUV values), Pancreas ([3]; Baseline): 4.95 ± 0.74 SUV
Uptake of radioactivity (SUV values), Pituitary ([3]; Baseline): 3.24 ± 0.03 SUV
Uptake of radioactivity (SUV values), Plasma ([3]; Baseline): 0.11 ± 0.02 SUV
Uptake of radioactivity (SUV values), Red blood cells ([3]; Baseline): 0.10 ± 0.03 SUV
Uptake of radioactivity (SUV values), Rest brain ([3]; Baseline): 2.23 ± 0.31 SUV
Uptake of radioactivity (SUV values), Spleen ([3]; Baseline): 2.62 ± 0.27 SUV
Uptake of radioactivity (SUV values), Submandibular gland ([3]; Baseline): 3.60 ± 0.18 SUV
Uptake of radioactivity (SUV values), Urine ([3]; Baseline): 0.35 ± 0.16 SUV

— publication PMC4537502 (Psychopharmacology, 2015)
